Test results published in patent US20090130121A1, “Synthetic Peptide Copolymers for Treatment and Prevention of Cardiovascular Disorders” (Yeda Research and Development Co., Ltd., priority 2005, published 2009).

Tests used:
[1] = tested on: apolipoprotein E-deficient mice; conditions: 12 week treatment; cited from earlier work
[2] = Body weight gain and plasma lipids in apoE-/- mice; format: in vivo; conditions: high and low doses, subcutaneously or orally, daily 8 weeks
Protocol: (§1) apoE-/- (backcrossed 10 times to C57BL/6J) mice were obtained from the Jackson Laboratory and were maintained under specific pathogen-free conditions and fed a normal chow diet. All experimental procedures were performed with approval from the Animal Care Committee of the Weizmann Institute of Science.
(§2) Eight-month-old apoE-/- mice (101 mice) were divided into 7 groups, […] (except day 0 group; n=11). Control group-time 0 (group 1) was sacrificed before treatment in order to measure the atherosclerotic lesion area prior to the treatments. Treatments were performed daily for a period of 8 weeks. Control group (group II) was orally administrated with PBS (0.2 ml). Control group III was injected subcutaneously (SC) with PBS (0.2 ml). Group IV was orally treated with GA in PBS (5.0 μg/0.2 ml); Groups V was orally treated with GA in PBS (250 μg/0.2 ml). Group VI was injected subcutaneously (SC) with GA in PBS (0.5 mg/0.2 ml). Group VII was injected subcutaneously (SC) with GA in PBS (2.0 mg/0.2 ml).
The whole blood samples were centrifuged for plasma separation and the plasma samples of each group were pooled. Total Plasma cholesterol as well as low and high density lipoprotein cholesterol (LDL and HDL, respectively) concentrations were measured in each group using Konelab 30i autoanalyser (Kone Instruments, Espoo, Finland).

[3] = Survival and body weight of C57BL/J6 mice on atherogenic diet, daily SC treatment; format: in vivo; conditions: Group B, GA 0.5 mg/0.2 ml SC daily
Source text: (§3) Fourteen-month-old male C57BL/J6 mice (Harlan) with an average body weight of 19 g were randomly divided into three groups (five animals in each group). The groups entered a two-week acclimatization period. Groups A, which served as positive control and B, which served as the treated group, received a high fat atherogenic diet containing 1.25 % cholesterol, 0.5% sodium cholate and 15% fat (Harlan Laboratories, Teklad Premier Laboratory Diets, Madison, Wis., USA TD 88051). Group C served as negative control and was maintained on a normal mouse chow (Altromin, Standard Diet). The chow was supplied considering that the average intake of food for each animal is about 5 g/day (Walker et al., 1999, Arterioscler Thromb Vasc Biol. 19, 2673-2679). Replenishment of food and autoclaved water was performed every other day. All the animals were weighed weekly during the study. The mice were maintained on a 12-hour light/dark cycle in ventilated cages and temperature-controlled environment, in accordance with the standard animal care requirements of the Weizmann Institute of Science.
Following acclimatization, the animals in groups A (positive control) and C (negative control) received 0.2 ml of PBS injected daily subcutaneously (SC). The animals in group B (treated) received SC daily injections of glatiramer acetate (GA) (COPAXONE®, Teva Pharmaceutical Industries Ltd) in PBS (0.5 mg/0.2 ml). After 8 weeks all the mice were bled retro-orbitally and humanely sacrificed by cervical dislocation. The hearts and ascending aorta were removed from the animals, rinsed with Dulbecco's PBS (Life Technologies) and used for the evaluation of fatty streak formation.
(§4) ANOVA single factor test was used for the comparison of the body weights of the C57BL/J6 mice. Since no fatty streaks were detected in the negative control group of the C57BL/J6 mice (Group C), only two groups (A and B) participated in the statistical analysis of the results obtained in the quantization of aortic fatty streak area. The C57BL/J6 data were analyzed using Student's t-test: two samples assuming unequal variance. […]

[4] = tested on: apoE-/- mice; assay: Aortic atherosclerotic lesion area in apoE-/- mice; format: in vivo
Protocol: as §1, §2
Aortic atherosclerotic areas were measured in control and treated mice of the following groups: I (time 0); III (S.C. PBS); V (Oral GA, 250 μg); and VII (S.C. GA, 2.0 mg).

[5] = tested on: C57BL/J6 mice maintained on an atherogenic diet; assay: Atherosclerotic fatty streak area (oil red O) in aorta of C57BL/J6 mice on atherogenic diet; format: in vivo
Source text: as §3, with “Science. […]” for “Science.”
Histological evaluations of aortic fatty streak formation were performed according to the method of Paigen et al. with some modifications (Paigen et al., 1987. Atherosclerosis. 68:231-240). […] The fatty streak area stained with oil red O was objectively determined using a computer microscopy planimetry system (Nikon Micro & Macro system eclipse E800; Nikon digital camera DXM 1200 CCD; Nikon ×20/0.75 lens magnification) and Image-Pro Plus image analyses software for Windows XP. The total stained area (calculated for all 20 slices of each animal) was averaged per section for each animal. […]
as §4

[6] = several clinical trials; mostly mild reactions at the injection site; cited from earlier work
[7] = tested on: apoE-/- mice; assay: Atherosclerotic lesion progression in the aortic sinus of apoE-/- mice; format: in vivo; conditions: daily 8 weeks
Protocol: as §1
as §2, with “Group IV was orally treated with GA in PBS (5.0 μg/0.2 ml); Groups V was orally treated with GA in PBS (250 μg/0.2 ml).” left out
Histological evaluations of aortic fatty streak formation were performed according to the method of Paigen et al. with some modifications (Paigen et al., 1987. Atherosclerosis. 68:231-240). Briefly, the apical two thirds of the myocardium were removed and the basal part was snap-frozen in OCT (Sakura Tissue-Tek) using Isopentan cooled in liquid nitrogen. The frozen tissue blocks were placed on a cryostat, and 10-μm serial slices of the ascending aorta were collected on charge-coated Superfrost glass slides until it became possible to locate the most cranial portion of the aortic sinus by examining unstained slices. Once this slice was identified, 40 slices covering 400 μm of the ascending aorta were collected. Every second slice of the 40 collected was stained with oil red O (Riedel de Haen), counterstained with hematoxylin (Merck) stains and used for further evaluation. The fatty streak area stained with oil red O was objectively determined using a computer microscopy planimetry system (Nikon Micro & Macro system eclipse E800; Nikon digital camera DXM 1200 CCD; Nikon ×20/0.75 lens magnification) and Image-Pro Plus image analyses software for Windows XP. The total stained area (calculated for all 20 slices of each animal) was averaged per section for each animal. Thereafter, the area per slice was averaged for each group of animals and presented in μm^2.
Student's t-test was used for the comparison of the lesion progression in the aortic sinus of the treated and control groups of the apoE-/- mice.

Compound | decrease in the size of atherosclerotic lesions [1] [%] | effect on body weight gain [2] | average body weight ten weeks following the initiation of the study ([3]; atherogenic diet) [g] | weight gained during the 10 weeks of the study ([3]; atherogenic diet) [g] | animals that reached the end of the study ([3]; one animal found dead five weeks into the study) | change in aortic lesion area compared to time 0 ([4]; Oral GA 250 μg, group V, P<0.05) | inhibition of aortic lesion area progression compared to control group III ([4]; high dose 2.0 mg S.C., group VII, t-test P=0.009) [%] | animals with no fatty streaks in the analysed aortic section (20 slices) ([5]; Group B, GA 0.5 mg SC daily 8 weeks, animals that reached the end of the study) | reduction in the fatty streak area compared to the untreated mice ([5]; calculated for all four mice in Group B) [fold] | average area stained with oil red O relative to positive control Group A ([5]; the two GA-treated mice that had fatty streaks, p=0.014) [%] | tolerability in clinical trials [6] | inhibition of the progression of lesion area in the aortic sinus with respect to control ([7]; high dose S.C. (2.0 mg)) [%] | inhibition of the progression of lesion area in the aortic sinus with respect to control ([7]; high dose orally (250 μg)) [%] | effect on lesion progression in the aortic sinus ([7]; low dose S.C. (500 μg)) | effect on lesion progression in the aortic sinus ([7]; low dose orally (50 μg))
CC(=O)CCCCn1c(=O)c2c(ncn2C)n(C)c1=O [PTX, pentoxifylline] | 60 | – | – | – | – | – | – | – | – | – | – | – | – | – | –
glatiramer acetate [GA] | – | did not affect | 24.20 ± 0.94 | 5.24 ± 1.40 | Four out of five | significance increase | 52 | two out of four | 4 | 40 | well tolerated with only minor side reactions | 44.4 | 37.7 | did not effect | did not effect
